For data set [1], the target named is SERT (Homo sapiens, UniProt P31645). The conditions noted are these: known values, background art; read-out: binding affinity (Ki) to SERT; cited from earlier work.
The target in data set [2] is serotonin transporter (SERT) (Rattus norvegicus, UniProt P31652). Nature of the data set: Radioligand binding assay with [3H]citalopram on synaptic membrane. To be noted: for affinity (Ki value) compared with Fluoxetine: comparison in words on Table 3; for activity / binding affinity relative to 6-nitro-2-piperazin-1-yl-quinoline: ratio of Ki values of Table 3.
serotonin transporter (SERT), sequence (P31652 whole entry): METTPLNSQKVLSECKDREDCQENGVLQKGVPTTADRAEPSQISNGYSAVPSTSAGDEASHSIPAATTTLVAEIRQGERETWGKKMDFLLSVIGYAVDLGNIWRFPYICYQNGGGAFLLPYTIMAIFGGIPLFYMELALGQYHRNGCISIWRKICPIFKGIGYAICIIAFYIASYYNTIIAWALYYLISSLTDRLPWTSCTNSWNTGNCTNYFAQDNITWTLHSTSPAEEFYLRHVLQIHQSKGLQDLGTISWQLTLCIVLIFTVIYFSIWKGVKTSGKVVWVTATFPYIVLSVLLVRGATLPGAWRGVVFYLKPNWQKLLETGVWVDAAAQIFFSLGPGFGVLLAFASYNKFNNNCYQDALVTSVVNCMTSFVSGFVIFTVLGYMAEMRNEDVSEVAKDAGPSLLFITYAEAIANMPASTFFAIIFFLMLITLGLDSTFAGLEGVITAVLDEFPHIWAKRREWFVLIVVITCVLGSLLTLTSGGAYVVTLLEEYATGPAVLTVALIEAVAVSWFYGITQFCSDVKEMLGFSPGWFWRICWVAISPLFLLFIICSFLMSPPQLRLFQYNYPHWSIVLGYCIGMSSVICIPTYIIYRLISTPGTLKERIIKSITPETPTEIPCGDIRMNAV
Description: After male SD Rats (250˜350 g) were decapitate by using quillotine, the whole brains were removed. The cerebral cortex were carefully cut to slices and weighed. 0.32 M sucrose which is 10 times of sucrose was added to the slices, and then homogenized twice for 15 seconds using Polytron. After being centrifuged at 4° C. for 10 minutes in 1,000×g, the thus obtained supernatant was re-centrifuged at 20,000×g for 20 minutes and then discarded. The precipitate was isolated, re-suspended in deionized water, was provided with osmotic shock for 10 minutes, and then centrifuged at 80,000×g for 20 minutes. The thus obtained precipitate was suspended in 50 ml of triacetate buffer, re-centrifuged at 48,000×g, and then transferred to a refrigerator. On the day of assay, the cells were thawed on ice, washed by centrifugation (48,000×g, 20 minutes).
The mixture was shaken at 25° C. for 60 minutes, incubated, filtered using a Brandel Cell Harvester through a GF/B Watman filter presoaked in 0.05 polyethylimine. The filters were then washed twice with 5 ml of ice-cold buffer, dried, added with 7 ml of ultima gold scintillation cocktail, and then shaken for 3˜4 hours.
Data set [3] can be described thus: Acute toxicity in rats. The conditions noted are these: SD, rat, in vivo. It is filed as in vivo. As for the experimental part:
(§1) 6-week old SPF SD line rats were used in the tests for acute toxicity. 6-chloro-2-piperazin-1-yl-quinoline or 4-chloro-6-nitro-2-piperazin-1-yl-quinoline were suspended in 1 ml saline buffer solution and […] administered to anterior tibialis once to 6 rats per group at the dosage of 500 mg/kg. Death, clinical symptoms, and weight change in rats were observed, hematological tests and biochemical tests of blood performed, and any abnormal signs in the gastrointestinal organs of chest and abdomen checked with eyes during autopsy. […]

Data set [4] deals with SPF SD line rats. The data set is described as follows: Acute toxicity in rats. It is filed as in vivo. On the procedure: as §1
The test system of data set [5] is depression-induced mice. Nature of the data set: Assay for anti-depression activity using a forced swimming test. In kind it is in vivo. To be noted: orally administered, 50 mg/kg (FIG. 1), p<0.003. On the procedure:
After 4-chloro-6-nitro-2-piperazin-1-yl-quinoline was dissolved in dimethylsulfoxide in a variety of concentrations and injected to depression-induced mice, the time of immobility was measured. The immobility time may be evaluated by measuring the effect against anti-depression. Because immobility means a helplessness of the mice, in this case, slow immobility should be understood to reduce depression.
4-chloro-6-nitro-2-piperazin-1-yl-quinoline was orally administered after 23 hours from the first treatment, subsequently, after 24 hours, the animals were placed in the cage to carry out the second treatment and the immobility time was measured for 5 minutes. The immobility caused by the second treatment was recorded while watching video tape. In order to make an objective observation, we made an average of the results of make than 3 people.

In data set [6] the test system is ICR mice. The data set is described as follows: Assay for anti-depression activity using a tail suspension test. In kind it is in vivo. To be noted: for anti-depression effect higher than that of control (immobility time): ICR mice, oral. As for the experimental part: The inventors carried out the tail suspension test to evaluate an anti-depression activity of the present compound. ICR mice were divided into 5 groups made up of 8 subjects, and orally dosed with 4-chloro-6-nitro-2-piperazin-1-yl-quinoline dissolved in saline buffer solution in a variety of its concentration 60 minutes prior to the beginning of the experiment. The evaluation of the activity was estimated using administering group, negative, and positive group. After suspending the animal by the tail induced the immobility, the immobility time was measured 6 minutes watching a recorded tape for video. The final data was obtained an average value measured by 3 persons to accurate the data.

Where [7] appears, read: 1 nM [3H]citalopram, rat cerebral cortex synaptic membrane, 25° C., 60 minutes.

Structures are written as SMILES. Like-named read-outs stand apart in the source and are kept apart here. Bounds are passed on as bounds.

SERT, sequence (P31645 whole entry, species assumed): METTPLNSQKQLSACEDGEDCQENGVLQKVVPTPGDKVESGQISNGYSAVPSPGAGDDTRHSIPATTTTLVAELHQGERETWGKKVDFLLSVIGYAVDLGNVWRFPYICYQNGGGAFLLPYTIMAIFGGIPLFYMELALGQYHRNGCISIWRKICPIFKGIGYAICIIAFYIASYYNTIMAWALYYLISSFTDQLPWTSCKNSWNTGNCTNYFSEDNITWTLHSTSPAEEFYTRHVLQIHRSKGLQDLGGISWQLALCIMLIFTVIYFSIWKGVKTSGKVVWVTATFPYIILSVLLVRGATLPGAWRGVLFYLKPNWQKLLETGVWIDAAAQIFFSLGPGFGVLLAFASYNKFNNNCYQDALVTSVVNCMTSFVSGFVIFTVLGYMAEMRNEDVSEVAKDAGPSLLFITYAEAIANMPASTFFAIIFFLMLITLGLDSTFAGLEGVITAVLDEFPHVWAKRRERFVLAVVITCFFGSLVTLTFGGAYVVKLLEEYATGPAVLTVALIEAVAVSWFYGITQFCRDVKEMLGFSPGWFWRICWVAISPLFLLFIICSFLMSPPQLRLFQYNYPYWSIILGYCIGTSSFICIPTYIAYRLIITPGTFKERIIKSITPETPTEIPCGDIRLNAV

Take `O=[N+]([O-])c1ccc2nc(N3CCNCC3)ccc2c1` [6-nitro-2-piperazin-1-yl-quinoline, 6-nitro-2-(piperazin-1-yl)quinoline, reference compound]: the inhibitory constant (Ki) (commonly a measure of affinity in units of concentration, obtained from inhibition or displacement) in data set [1] was 0.018 nM; in data set [2] (setting [7]), 0.17 ± 0.03 nM.

With `Cc1cc2cc([N+](=O)[O-])ccc2nc1N1CCNCC1` [Example 1, 3-methyl-6-nitro-2-(piperazin-1-yl)quinoline], the Ki in data set [2] was determined as 8.45 ± 0.62 nM.

Take `CCc1cc2cc([N+](=O)[O-])ccc2nc1N1CCNCC1` [Example 2, 3-ethyl-6-nitro-2-(piperazin-1-yl)quinoline]: in data set [2], the inhibition constant Ki worked out at 0.36 ± 0.02 nM and the “affinity (Ki value) compared with Fluoxetine” value is on record as “exceed that of Fluoxetine”.

As for `CCCc1cc2cc([N+](=O)[O-])ccc2nc1N1CCNCC1` [Example 3, 6-nitro-2-(piperazin-1-yl)-3-propylquinoline], in data set [2], affinity was put at a Ki of 0.26 ± 0.01 nM and the “affinity (Ki value) compared with Fluoxetine” value was “exceed that of Fluoxetine”.

With `O=[N+]([O-])c1ccc2nc(N3CCNCC3)c(CCCCl)cc2c1` [Example 4, 3-(3-chloropropyl)-6-nitro-2-piperazin-1-yl-quinoline], the inhibitory constant (Ki) in data set [2] was found to be 1.08 ± 0.17 nM.

Consider `O=[N+]([O-])c1ccc2nc(N3CCNCC3)c(CCCF)cc2c1` [Example 5, 3-(3-fluoropropyl)-6-nitro-2-piperazin-1-yl-quinoline], for which, in data set [2] (setting [7]), the Ki was found to be 0.32 ± 0.01 nM. The “affinity (Ki value) compared with Fluoxetine” value in data set [2] is on record as “exceed that of Fluoxetine”.

On to `Ic1ccc2nc(N3CCNCC3)ccc2c1` [Example 6, 6-iodo-2-piperazin-1-yl-quinoline], for which, in data set [2] (setting [7]), the Ki stood at 6.6 ± 0.52 nM.

With `Brc1ccc2nc(N3CCNCC3)ccc2c1` [Example 7, 6-bromo-2-piperazin-1-yl-quinoline], the inhibition constant Ki in data set [2] (setting [7]) stood at 0.91 ± 0.07 nM.

In the case of `Clc1ccc2nc(N3CCNCC3)ccc2c1` [Example 8, 6-chloro-2-piperazin-1-yl-quinoline], the 50% lethal dose (LD50) (commonly the dose expected to kill half of the subjects tested) in data set [3] (rats, single administration of 500 mg/kg, read-out: estimated LD50) is over 500 mg/kg. For the same molecule, in data set [4] (rats, single administration of 500 mg/kg, 6 rats per group), the “acute toxicity observations (death, clinical symptoms, weight change)” value is “did not cause any specific clinical symptoms, weight change, or death”. The molecule also displayed an inhibitory constant (Ki) in data set [2] (setting [7]) of 1.68 ± 0.13 nM.

In data set [2] (setting [7]), `O=[N+]([O-])c1ccc2nc(N3CCNCC3)c(Br)cc2c1` [Example 9, 3-bromo-6-nitro-2-(piperazin-1-yl)quinoline] yielded a Ki of 12.6 ± 1.14 nM.

For the molecule `O=[N+]([O-])c1ccc2nc(N3CCNCC3)cc(Cl)c2c1` [Example 10, 4-chloro-6-nitro-2-(piperazin-1-yl)quinoline], in data set [5], the “anti-depression effect higher than that of the control (immobility time)” value came to 30%. Besides, in data set [6] (FIG. 2B, 1 mg/kg or 10 mg/kg, anova p<0.005), the “effect higher than that of the control (immobility time)” value is on record as “about 65%”. Moreover, the “anti-depression effect higher than that of control (immobility time)” value came out at 56% in data set [6] (5 mg/kg) and 60% in data set [6] (50 mg/kg). In data set [6] (Mus musculus, expected from evenness of effect from 1 to 50 mg/kg), the ED50 (in general, the dose at which the effect has come halfway, by size or by number of responders) was under 1 mg/kg. The molecule further displayed an LD50 in data set [3] (500 mg/kg) of over 500 mg/kg. The “acute toxicity observations (death, clinical symptoms, weight change)” value in data set [4] (rat, in vivo, 500 mg/kg) is listed as “did not cause any specific clinical symptoms, weight change, or death”. In data set [2], this molecule came in with an inhibitory constant (Ki) of 0.017 nM. The “activity / binding affinity relative to 6-nitro-2-piperazin-1-yl-quinoline” value in data set [2] is on record as 10 times; in data set [2] (listed as 4-chloro-6-nitro-2-piperazin-1-yl-quinoline), “over ten times”.

As for `C=Cc1cc(N2CCNCC2)nc2ccc([N+](=O)[O-])cc12` [Example 13, 6-nitro-2-(piperazin-1-yl)-4-vinylquinoline], the affinity in data set [2], expressed as Ki, was 1.42 nM.

In turn, `O=[N+]([O-])c1ccc2nc(N3CCNCC3)cc(-c3ccco3)c2c1` [Example 14, 4-(2-furanyl)-6-nitro-2-(piperazin-1-yl)quinoline] had an inhibition constant (Ki) in data set [2] of 6.4 nM.

Consider `CC1CN(c2ccc3cc([N+](=O)[O-])ccc3n2)CCN1` (stereo not shown) [Example 15, 2-(3-methylpiperazin-1-yl)-6-nitroquinoline], for which, in data set [2] (setting [7]), the Ki was found to be 22.2 ± 1.7 nM.

In data set [2] (setting [7]), `CNCCN(C)c1ccc2cc([N+](=O)[O-])ccc2n1` [Example 16, 2-(N-methyl-N-(2-N′-methylamino)ethyl)amino-6-nitroquinoline] came in with a Ki of 8.43 ± 0.45 nM.

With `O=[N+]([O-])c1ccc2nc(N3CCCNCC3)ccc2c1` [Example 17, 2-[1,4]diazepin-1-yl-6-nitroquinoline], the affinity in data set [2] (setting [7]), expressed as Ki, was 1.9 ± 0.15 nM.

These data come from patent US20050165006A1, “Quinoline derivatives, their preparation and pharmaceutical compositions comprising the same” (priority 2002, published 2005).
